# Experimental data published in patent publication US20260062443A1 (ALEXION PHARMACEUTICALS, INC., priority 2022, published 2026).
# Biological target: T1, Human complement C1s enzyme (Homo sapiens, UniProt P09871)
# T1 sequence (P09871 438-688 limits assumed): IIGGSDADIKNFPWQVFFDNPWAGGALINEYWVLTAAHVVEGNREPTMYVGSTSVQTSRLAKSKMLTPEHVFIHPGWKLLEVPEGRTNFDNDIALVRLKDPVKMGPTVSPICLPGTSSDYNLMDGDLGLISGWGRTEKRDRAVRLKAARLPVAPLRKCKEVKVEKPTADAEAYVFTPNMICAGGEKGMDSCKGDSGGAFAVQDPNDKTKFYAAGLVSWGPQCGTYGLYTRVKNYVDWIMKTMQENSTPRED
# T1 sequence (P09871 16-437 partner limits assumed): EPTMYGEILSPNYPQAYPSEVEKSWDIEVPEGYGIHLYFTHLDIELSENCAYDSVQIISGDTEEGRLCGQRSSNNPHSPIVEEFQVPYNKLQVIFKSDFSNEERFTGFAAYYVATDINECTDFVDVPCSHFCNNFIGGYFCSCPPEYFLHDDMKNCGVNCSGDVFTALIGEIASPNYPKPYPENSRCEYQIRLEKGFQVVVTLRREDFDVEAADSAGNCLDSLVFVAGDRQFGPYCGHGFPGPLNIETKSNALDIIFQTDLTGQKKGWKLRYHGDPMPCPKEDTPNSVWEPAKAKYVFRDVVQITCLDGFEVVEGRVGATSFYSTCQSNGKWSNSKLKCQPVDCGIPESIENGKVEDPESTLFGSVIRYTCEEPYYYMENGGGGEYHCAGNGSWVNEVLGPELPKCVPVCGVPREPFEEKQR
# Test: Human C1s enzyme assay
# Type: biochemical
# Settings: human complement C1s enzyme 1.16 nM, substrate Z-L-Lys-SBzl 100 μM, 5 min preincubation; read-out: IC50 (Stars), C1s Inhibiting Activity
# In short: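 IC50 from nonlinear regression of reaction rates versus compound concentration, with rates taken from A405 recorded at 30 s intervals over 30 min after adding 100 μM Z-L-Lys-SBzl plus 100 μM DTNB. Enzyme was human C1s purified from serum, 1.16 nM, given 5 min compound preincubation at room temperature, pH 7.5 Tris/1 M NaCl.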
row,Structure (SMILES),IC50
1,"O=C(NCC(=O)N1CC2(C[C@H]1C(=O)NCc1cc3ccncn3c1)OCCO2)c1ccc2c(c1)Oc1ccccc1S2 [Compound 276, (S)-7-((phenoxathiine-3-carbonyl)glycyl)-N-(pyrrolo[1,2-c]pyrimidin-6-ylmethyl)-1,4-dioxa-7-azaspiro[4.4]nonane-8-carboxamide]",> 1000 nM
2,"C[C@@]12C[C@@H]1N(C(=O)CNC(=O)c1ccc3c(c1)Oc1ccccc1S3)[C@H](C(=O)NCc1ccc3c(c1)COB3O)C2 [Compound 279, (1S,3S,5S)-N-((1-hydroxy-1,3-dihydrobenzo[c][1,2]oxaborol-5-yl)methyl)-5-methyl-2-((phenoxathiine-3-carbonyl)glycyl)-2-azabicyclo[3.1.0]hexane-3-carboxamide]",> 1000 nM
3,"O=C(Cc1ccc(Cl)c(Cl)c1)NCC(=O)N1CC2(C[C@H]1C(=O)NCc1cc3cnccc3[nH]1)OCCO2 [Compound 280, (S)-N-((1H-pyrrolo[3,2-c]pyridin-2-yl)methyl)-7-((2-(3,4-dichlorophenyl)acetyl)glycyl)-1,4-dioxa-7-azaspiro[4.4]nonane-8-carboxamide]",100 to 1000 nM
4,"Cc1ccc2cc(C(=O)NCC(=O)N3CC4(C[C@H]3C(=O)NCc3cc5cnccc5[nH]3)OCCO4)sc2c1 [Compound 281, (S)-N-((1H-pyrrolo[3,2-c]pyridin-2-yl)methyl)-7-((6-methylbenzo[b]thiophene-2-carbonyl)glycyl)-1,4-dioxa-7-azaspiro[4.4]nonane-8-carboxamide]",100 to 1000 nM
5,"O=C(NCC(=O)N1C[C@H](OC(F)F)C[C@H]1C(=O)NCc1ccc2ocnc2c1)c1ccc2c(c1)Oc1ccccc1S2 [Compound 282, (2S,4R)-N-(benzo[d]oxazol-5-ylmethyl)-4-(difluoromethoxy)-1-((phenoxathiine-3-carbonyl)glycyl)pyrrolidine-2-carboxamide]",> 1000 nM
6,CO[C@@H]1CCN(C(=O)CNC(=O)c2ccc3c(c2)Oc2ccccc2S3)[C@@H]1C(=O)NCc1cc2cnccc2[nH]1 [Compound 285],> 1000 nM
7,"C[C@@H](NC(=O)[C@@H]1CC(COCCCCN)CN1C(=O)CNC(=O)c1ccc2c(c1)Oc1ccccc1S2)c1cc2cnccc2[nH]1 (stereo partly drawn) [Compound 288, (2S)-N-((R)-1-(1H-pyrrolo[3,2-c]pyridin-2-yl)ethyl)-4-((4-aminobutoxy)methyl)-1-((phenoxathiine-3-carbonyl)glycyl)pyrrolidine-2-carboxamide]",< 100 nM
8,"C[C@@]12C[C@@H]1N(C(=O)CNC(=O)c1ccc3c(c1)Oc1ccccc1S3)[C@H](C(=O)NCc1ccc3c(c1)B(O)OC3)C2 [Compound 290, (1S,3S,5S)-N-((1-hydroxy-1,3-dihydrobenzo[c][1,2]oxaborol-6-yl)methyl)-5-methyl-2-((phenoxathiine-3-carbonyl)glycyl)-2-azabicyclo[3.1.0]hexane-3-carboxamide]",> 1000 nM
9,"C[C@@]12C[C@@H]1N(C(=O)CNC(=O)c1ccc3c(c1)Oc1ccccc1S3)[C@H](C(=O)NCc1cc3cc(B(O)O)ccc3[nH]1)C2 [Compound 291, (2-(((1S,3S,5S)-5-methyl-2-((phenoxathiine-3-carbonyl)glycyl)-2-azabicyclo[3.1.0]hexane-3-carboxamido)methyl)-1H-indol-5-yl)boronic acid]",> 1000 nM
10,"Cc1ccc(Oc2cccc(C(=O)NCC(=O)N3C[C@H](OC(F)F)C[C@H]3C(=O)NCc3cc4cnccc4[nH]3)c2)c(Cl)c1 [Compound 292, (2S,4R)-N-((1H-pyrrolo[3,2-c]pyridin-2-yl)methyl)-1-((3-(2-chloro-4-methylphenoxy)benzoyl)glycyl)-4-(difluoromethoxy)pyrrolidine-2-carboxamide]",< 100 nM
11,"CCc1ccc(Oc2cccc(C(=O)NCC(=O)N3C[C@H](OC(F)F)C[C@H]3C(=O)NCc3cc4cnccc4[nH]3)c2)cc1 [Compound 293, (2S,4R)-N-((1H-pyrrolo[3,2-c]pyridin-2-yl)methyl)-4-(difluoromethoxy)-1-((3-(4-ethylphenoxy)benzoyl)glycyl) pyrrolidine-2-carboxamide]",< 100 nM
12,"O=C(NCC(=O)N1C[C@H](OC(F)F)C[C@H]1C(=O)NCc1cc2cnccc2[nH]1)c1cccc(Oc2ccc(C3CC3)cc2)c1 [Compound 294, (2S,4R)-N-((1H-pyrrolo[3,2-c]pyridin-2-yl)methyl)-1-((3-(4-cyclopropylphenoxy)benzoyl)glycyl)-4-(difluoromethoxy)pyrrolidine-2-carboxamide]",< 100 nM
13,"O=C(NCC(=O)N1C[C@H](OC(F)F)C[C@H]1C(=O)NCc1cc2cnccc2[nH]1)c1cccc(Oc2cc(F)ccc2F)c1 [Compound 295, (2S,4R)-N-((1H-pyrrolo[3,2-c]pyridin-2-yl)methyl)-4-(difluoromethoxy)-1-((3-(2,5-difluorophenoxy)benzoyl)glycyl) pyrrolidine-2-carboxamide]",< 100 nM
14,"C[C@@]12C[C@@H]1N(C(=O)CNC(=O)CCCOc1ccccc1)[C@H](C(=O)NC1CN(C(=O)[C@H]3CNCCN3)C1)C2 [Compound 296, (1S,3S,5S)-5-methyl-2-((4-phenoxybutanoyl)glycyl)-N-(1-((R)-piperazine-2-carbonyl)azetidin-3-yl)-2-azabicyclo[3.1.0]hexane-3-carboxamide]",> 1000 nM

# Other lines, results leading:
row,IC50,Structure (SMILES)
1,< 100 nM,Cc1ccc(Oc2cccc(C(=O)NCC(=O)N3C[C@H](OC(F)F)C[C@H]3C(=O)NCc3cc4cnccc4[nH]3)c2)cc1 [Compound 272]
2,< 100 nM,"CC(C)(C)c1ccc(Oc2cccc(C(=O)NCC(=O)N3C[C@H](OC(F)F)C[C@H]3C(=O)NCc3cc4cnccc4[nH]3)c2)cc1 [Compound 273, (2S,4R)-N-((1H-pyrrolo[3,2-c]pyridin-2-yl)methyl)-1-((3-(4-(tert-butyl)phenoxy)benzoyl)glycyl)-4-(difluoromethoxy)pyrrolidine-4-carboxamide]"
3,< 100 nM,"Cc1cc(F)ccc1Oc1cccc(C(=O)NCC(=O)N2C[C@H](OC(F)F)C[C@H]2C(=O)NCc2cc3cnccc3[nH]2)c1 [Compound 274, (2S,4R)-N-((1H-pyrrolo[3,2-c]pyridin-2-yl)methyl)-4-(difluoromethoxy)-1-((3-(4-fluoro-2-methylphenoxy)benzoyl)glycyl) pyrrolidine-2-carboxamide]"
4,< 100 nM,"O=C(NCC(=O)N1C[C@H](OC(F)F)C[C@H]1C(=O)NCc1cc2cnccc2[nH]1)c1cccc(Oc2cccs2)c1 [Compound 275, (2S,4R)-N-((1II-pyrrolo[3,2-c]pyridin-2-yl)methyl)-4-(difluoromethoxy)-1-((3-(thiophen-2-yloxy)benzoyl)glycyl)pyrrolidine-2-carboxamide]"
5,< 100 nM,"C[C@@]12C[C@@H]1N(C(=O)CNC(=O)c1cccc(Oc3ccccc3)c1)[C@H](C(=O)NCc1cc3cnccn3c1)C2 [Compound 277, (1S,3S,5S)-5-methyl-2-((3-phenoxybenzoyl)glycyl)-N-(pyrrolo[1,2-a]pyrazin-7-ylmethyl)-2-azabicyclo[3.1.0]hexane-3-carboxamide]"
6,< 100 nM,"O=C(NCC(=O)N1C[C@H](OC(F)F)C[C@H]1C(=O)NCc1cc2cnccn2c1)c1cccc(Oc2ccc(F)cc2)c1 [Compound 278, (2S,4R)-4-(difluoromethoxy)-1-((3-(4-fluorophenoxy)benzoyl)glycyl)-N-(pyrrolo[1,2-a]pyrazin-7-ylmethyl)pyrrolidine-2-carboxamide]"
7,< 100 nM,"C[C@@H](NC(=O)[C@@H]1C[C@@H](OC(F)F)CN1C(=O)CNC(=O)c1cnc2c(c1)Oc1ccccc1S2)c1cc2cnccc2[nH]1 [Compound 283, N-[2-[(2S,4R)-4-(difluoromethoxy)-2-[[(1R)-1-(1H-pyrrolo[3,2-c]pyridin-2-yl)ethyl]carbamoyl]pyrrolidin-1-yl]-2-oxo-ethyl]-[1,4]benzoxathiino[3,2-b]pyridine-3-carboxamide]"
8,< 100 nM,"Cc1ccc2c(c1)Sc1ccc(C(=O)NCC(=O)N3C[C@H](OC(F)F)C[C@H]3C(=O)N[C@H](C)c3cc4cnccc4[nH]3)cc1O2 [Compound 286, (2S,4R)-N-((R)-1-(1H-pyrrolo[3,2-c]pyridin-2-yl)ethyl)-4-(difluoromethoxy)-1-((8-methylphenoxathiine-3-carbonyl)glycyl)pyrrolidine-2-carboxamide]"
9,< 100 nM,"O=C(NCC(=O)N1CC2(C[C@H]1C(=O)NCc1cc3cnccc3[nH]1)OCCO2)c1ccc(Oc2ccc(Cl)c(Cl)c2)o1 [Compound 287, (S)-N-((1H-pyrrolo[3,2-c]pyridin-2-yl)methyl)-7-((5-(3,4-dichlorophenoxy)furan-2-carbonyl)glycyl)-1,4-dioxa-7-azaspiro[4.4]nonane-8-carboxamide]"
10,< 100 nM,"C[C@@H](NC(=O)C1CSCN1C(=O)CNC(=O)c1ccc2c(c1)Oc1ccccc1S2)c1cc2cnccc2[nH]1 (stereo partly drawn) [Compound 289, N-((R)-1-(1H-pyrrolo[3,2-c]pyridin-2-yl)ethyl)-3-((phenoxathiine-3-carbonyl)glycyl)thiazolidine-4-carboxamide]"
